{"source": "patent US20240050735A1", "about": "“SYSTEMS AND METHODS FOR TREATING AND INHIBITING WOUND INFECTIONS” (priority 2020, published 2024)", "key": {"[1]": {"tested_on": "S. aureus persister cells", "conditions": "even at 100×MIC; cited from earlier work"}, "planktonic MRSA": {"tested_on": "planktonic MRSA", "assay": "Time-killing test on planktonic MRSA in stationary phase", "format": "cell-based, Methicillin-resistant S. aureus (MRSA) USA300", "conditions": "5 mg mL^−1 DAP, within 24 hours", "procedure": "MRSA bacteria was cultured in LB media in a 37° C. water shaking bath overnight to reach the concentration of 1×10^8 CFU mL^−1. Then, they were diluted to 10^5 CFU mL^−1 in 96-well plates by adding different concentrations of VAN solutions. After incubation for 24 hours without shaking, MIC of VAN to inhibit MRSA growth was measured by a Biotek Synergy H1 hybrid multi-mode microplate reader (BioTek, Winooski, Vt., USA) at OD600. To evaluate the killing time of VAN to bacteria in stationary phase (1×10^8 CFU mL^−1), VAN powder was added to bacteria solution to obtain concentration of 1 mg mL^−1, 3 mg mL^−1, 5 mg mL^−1, and 10 mg mL^−1, respectively, while remaining MRSA concentration of 1×10^8 CFU mL^−1. After incubation in a 37° C. water bath for 1 day, 2 days, 3 days and 4 days, the CFU of MRSA cells was tested by the standard plate spread counting assay, respectively. The time-killing tests of DAP with different concentrations (0.1 mg mL^−1, 0.5 mg mL^−1, 1 mg mL^−1, and 5 mg mL^−1) on MRSA planktonic cells were also performed, with the incubation time up to 24 hours."}, "HDFa cells": {"tested_on": "HDFa cells", "assay": "Cell toxicity of high concentration of antibiotics, LIVE/DEAD stain", "format": "cell-based, human", "conditions": "20 mg mL^−1 DAP, 24 hour incubation", "procedure": "(§1) To evaluate the cell toxicity of the high concentration of antibiotics, HaCaT cells and HDFa cells were used. 2×10^4 HaCat cells and 2×10^3 HDFa cells were seeded in each well of a 96-well plate. After being cultured in an incubator under 37° C. and 5% CO2 for 24 hours, 4.5 mg mL^−1 VAN and 20 mg mL^−1 DAP were added to the culture media, respectively. Both HaCat cells and HDFa cells were treated by VAN for two days, and exposed to DAP for one day, respectively. The cell toxicity of the two cells at the end time points were evaluated by LIVE/DEAD stain and visualized by a confocal laser scanning microscope (CLSM, LSM 710, Zeiss, Germany)."}, "HaCaT cells": {"tested_on": "HaCaT cells", "assay": "Cell toxicity of high concentration of antibiotics, LIVE/DEAD stain", "format": "cell-based, human", "conditions": "20 mg mL^−1 DAP, 24 hour incubation", "procedure": "as §1"}, "[2]": {"format": "in vitro ADME", "conditions": "for concentration delivered to wound tissues: 5 mg mL^−1 DAP loaded", "procedure": "Investigations were also performed to determine the iontophoretic antibiotic delivery efficiency of the HIC-based biofilm treatment system 100 using high current intensities. These investigations included an ex vivo antibiotic delivery study using the same MRSA biofilm-infected porcine skin wound model as in the previous section. Vancomycin (VAN) was used here as a model drug, since it is the FDA-approved antibiotic and is the clinical gold standard for combating S. aureus infections.\nFirst the VAN delivery efficiency was tested at different current intensities (from 0 mA cm^−2 (passive diffusion) to 75 mA cm^−2) applied by the HIC-based biofilm treatment system 100 for 1 hour. The drug/buffer chamber 114 of the working device 104 was loaded with 1 mg mL^−1 VAN in this study. The anode side was used as the working device 104 because VAN required anodal iontophoresis. The accumulated concentration of VAN in biofilm infected skin wound was measured immediately after iontophoresis using high performance liquid chromatography (HPLC). […] When 75 mA cm^−2 was used, the VAN concentration in wound tissue increased to 4.5±0.52 mg g^−1. The VAN concentration in wound tissue after passive diffusion, 0.5 mA cm^−2, and 19 mA cm^−2 iontophoresis were also measured. However, they could not be distinguished from the background interference of the residual biofilm components, so no quantitative results were obtained (data not shown). Importantly, the VAN concentration delivered by 75 mA cm^−2 iontophoresis for 1 hour exceeded the minimal biofilm eradication concentration (MBEC) of VAN reported for MRSA biofilm, which was 4 mg g^−1. The ability to deliver a lethal antibiotic concentration into biofilm-infected wounds within a short period of time was critical for biofilm treatment as it would minimize the chance for bacteria to develop adaptive tolerance.\nThe fetal pig skin samples (approximately 30×30 mm) were immersed in 10% (v/v) bleach for 5 minutes after hair removal. Then, skin samples were sterilized in 70% ethanol for 30 minutes. The surface of skin sample was further cleaned by 10% povidone-iodine and 70% isopropanol to prevent contamination. A 6-mm disposable biopsy punch was used to create an excisional wound. Samples were put into sterile 10-cm petri-dishes filled with sterile PBS (6 mL). The wound was then inoculated with 1×10^8 CFU mL^−1 MRSA bacteria solution (20 μL). The bacteria were allowed to grow in a 37° C. Heratherm™ compact microbiological incubator (ThermoFischer Scientific™, Waltham, Mass., USA) for 48 hours to form mature biofilms.\nTo evaluate the antibiotic delivery efficacy of VAN by high-intensity current, biofilm infected fetal pig skin wound was used. The DAP test setup was same as that of VAN, except no PBS chamber 122 was used. Instead, the inner surface of the skin wound contacted directly to the hydrogel 120 of the counter device 106. To evaluate the effect of electrical current intensity on the drug delivery efficacy, different current intensities from 0 to 75 mA cm^−2 were applied. To evaluate the effect of loading concentration of antibiotics, different concentrations of VAN and DAP from 1 mg mL^−1 to 10 mg mL^−1 were used. Since VAN is […] and DAP is negatively charged under physiological environment, anode HIC-based device was placed facing biofilm for VAN iontophoresis, and cathode HIC-based device was placed facing biofilm for DAP iontophoresis. Samples were collected immediately after different treatments. The concentrations of antibiotics delivered into skin wound samples were measured by high-performance liquid chromatography (HPLC). The permeation coefficient (Pc, cm s^−1) was then calculated (Pc=J/C, where J is antibiotic delivery flux in tissue samples (μg (cm^2s)^−1, C is the loading concentration of antibiotic solution (μg m L^−1)). […]"}, "[3]": {"format": "in vitro ADME, porcine", "conditions": "for distribution in wound tissue (fluorescence): 1 mg mL^−1 FD-4", "procedure": "It was determined that high-intensity iontophoresis using the HIC-based biofilm treatment system 100 was able to enhance the VAN penetration depth in wound tissues. A high penetration depth would allow effective treatment of bacteria in deeper layers of clinical biofilm infections to minimize biofilm reformation. A fluorescently labeled dextran (M.W.=4 kDa, FD-4) was used to visualize drug distribution in wound tissue immediately after iontophoresis in this test. […] All wound tissues were dehydrated by acetone before sectioning to minimize FD-4 mobility during sample processing. When passive diffusion and 0.5 mA cm^−2 were applied, the fluorescence was indiscernible under microscope. […] This penetration depth was higher than the typical thickness of in vivo S. aureus biofilm infections in skin wounds (150 μm above wound surface and 190 μm below wound surface).\nFD-4 penetration and distribution in the MRSA biofilm infected skin wound was evaluated by cryo-section and fluorescent microscopy. Briefly, samples were collected by 8-mm disposable biopsy punch and dehydrated in acetone for 10 to 30 minutes. After being air dried for another 10 to 30 minutes, the samples were embedded in tissue freezing medium (OCT) and sectioned to obtain 10 μm section under −20 ° C. Section samples were then observed under a fluorescent microscope (DMI 6000 B, Leica, Bannockburn, Ill., USA)."}, "S. gordonii biofilms": {"tested_on": "S. gordonii biofilms", "conditions": "cited from earlier work"}}, "note": "Like-named read-outs stand apart in the source and are kept apart here."}
{"compound": "CCCCCCCCCC(=O)N[C@@H](Cc1c[nH]c2ccccc12)C(=O)N[C@H](CC(N)=O)C(=O)N[C@@H](CC(=O)O)C(=O)N[C@@H]1C(=O)NCC(=O)N[C@@H](CCCN)C(=O)N[C@@H](CC(=O)O)C(=O)N[C@H](C)C(=O)N[C@@H](CC(=O)O)C(=O)NCC(=O)N[C@H](CO)C(=O)N[C@@H]([C@H](C)CC(=O)O)C(=O)N[C@@H](CC(=O)c2ccccc2N)C(=O)O[C@@H]1C", "note": "[DAP, Daptomycin]", "values": [{"measurement": "killing of S. aureus persister cells", "setting": "[1]", "value": "not capable of killing"}, {"measurement": "bacterial count after incubation (from 10^8 CFU g^−1)", "setting": "planktonic MRSA", "value": 0, "unit": "CFU g^−1"}, {"measurement": "viability of skin cells", "setting": "HDFa cells", "value": "did not have significant impact"}, {"measurement": "viability of skin cells", "setting": "HaCaT cells", "value": "did not have significant impact"}, {"measurement": "Pc at 75 mA cm^−2 higher than 0.5 mA cm^−2 iontophoresis", "setting": "[2]; 5 mg mL^−1 DAP", "value": 10.1, "unit": "times"}, {"measurement": "Pc at 75 mA cm^−2 higher than passive diffusion", "setting": "[2]; 5 mg mL^−1 DAP", "value": 12.0, "unit": "times"}, {"measurement": "permeation coefficient (Pc)", "setting": "[2]; 0.5 mA cm^−2 iontophoresis, 5 mg mL^−1 DAP", "value": "15.7±3.37 ×10^−6 cm s^−1"}, {"measurement": "concentration delivered into wound tissue", "setting": "[2]; 75 mA cm^−2, 1 hour, 1 mg mL^−1 DAP loaded", "value": "3.3 ± 1.49", "unit": "mg/g"}, {"measurement": "concentration delivered to wound tissues", "setting": "[2]; 75 mA cm^−2, 1 hour", "value": "19.9 ± 1.45", "unit": "mg/g"}, {"measurement": "concentration delivered into wound tissue", "setting": "[2]; 75 mA cm^−2, 1 hour, 10 mg mL^−1 DAP loaded", "value": "32.8 ± 5.68", "unit": "mg/g"}, {"measurement": "permeation coefficient (Pc)", "setting": "[2]; 75 mA cm^−2 iontophoresis, 5 mg mL^−1 DAP", "value": "158.3±11.18 ×10^−6 cm s^−1"}, {"measurement": "permeation coefficient (Pc)", "setting": "[2]; passive diffusion, 5 mg mL^−1 DAP", "value": "13.2±3.15 ×10^−6 cm s^−1"}, {"measurement": "concentration delivered to wound tissues", "setting": "[2]; passive diffusion, 1 hour", "value": "1.7 ± 0.59", "unit": "mg/g"}]}
{"compound": "Fluorescein isothiocyanate (FITC) labeled dextran-4 kDa [FD-4]", "values": [{"measurement": "distribution in wound tissue (fluorescence)", "setting": "[3]; 0.5 mA cm^−2, 1 hour", "value": "indiscernible"}, {"measurement": "distribution in wound tissue (fluorescence)", "setting": "[3]; 19 mA cm^−2, 1 hour", "value": "fluorescence could only be seen near the upper boundary of the wound tissue"}, {"measurement": "penetration depth (entire tissue thickness, after dehydration)", "setting": "[3]; 75 mA cm^−2, 1 hour", "value": "182.4±12.62", "unit": "μm"}, {"measurement": "penetration depth (entire tissue thickness, before dehydration)", "setting": "[3]; 75 mA cm^−2, 1 hour", "value": "955.7±192.56", "unit": "μm"}, {"measurement": "distribution in wound tissue (fluorescence)", "setting": "[3]; 75 mA cm^−2, 1 hour", "value": "penetrated the entire thickness of the tissue sample"}, {"measurement": "distribution in wound tissue (fluorescence)", "setting": "[3]; passive diffusion, 1 hour", "value": "indiscernible"}]}
{"compound": "gentamicin", "values": [{"measurement": "biofilm bacterial count reduction", "setting": "S. gordonii biofilms; 0.4 mA cm^−2 with 2 μg mL^−1 gentamicin, 24 hours", "value": 4.3, "unit": "log10 scales"}, {"measurement": "bacteria count reduction", "setting": "S. gordonii biofilms; antibiotic alone", "value": 0.8, "unit": "log10 scale"}]}
